The test system of one data set is Lucena-1 (K562/VCR). The data set is described as follows: cells. In kind it is cell-based, human. The following applies: for RR (relative resistance) Lucena-1: (EC50 MDR cells)/(EC50 parental cells), Lucena-1/K562; for EC50: Homo sapiens, Lucena 1, 72 h, read-out: EC50 Lucena-1. The gist of the method: (§1)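 K562 and its MDR sublines Lucena-1 (maintained in 60 nM VCR) and FEPS (500 nM DNR) seeded at 2 × 10^4 cells/mL in RPMI-1640 with 10% FBS, treated with compounds at 1–100 μM (0.5% DMSO controls). MTT 0.5 g/L for 3 h, A570 read; EC50 by logarithmic regression, three independent experiments.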

Another data set deals with RAW 264.7 cells. The data set is described as follows: Cytotoxicity to RAW 264.7 cells (MTT). In kind it is cell-based, murine. The following applies: Mus musculus, RAW264.7; 48 h, MTT; read-out: EC50 RAW. The protocol: (§2) LLC-MK2 kidney fibroblasts (ATCC) and RAW 264.7 macrophages (ATCC) were cultivated in culture flasks in complete DMEM with 5% FBS at 37 °C in 5% CO2. The LLC-MK2 cell monolayer was detached by treatment with trypsin-EDTA 0.05% for 5 min at 37 °C. The RAW cell monolayer was detached mechanically. In both cases, the cells were centrifuged at 480× g for 6 min and resuspended in complete DMEM with 5% FBS, and the cell density was determined by counting with trypan-blue dye exclusion on Neubauer chambers before use.
RAW 264.7 cells were seeded in a 96-well microplate (2.0 × 10^4 cells per well) in complete DMEM with 5% FBS (120 µL per well). After incubation for 24 h at 37 °C in 5% CO2, the medium was renewed, and compounds were added at a range of concentrations in triplicate (100–1 μM). Untreated cells and cells treated with DMEM and 10% DMSO were used as negative and positive controls, respectively. Vehicle control containing DMEM and 0.3% DMSO was maintained for comparison. After incubation for 48 h at 37 °C in 5% CO2, the medium was renewed, and an MTT solution in PBS was added (3.0 mM, 20 µL per well). After incubation for 2 h at 37 °C in 5% CO2, the supernatant was removed, and MTT formazan was dissolved in DMSO (150 µL per well). Absorbance was measured using a microplate reader at 570 nm.
(§3) The percent cell or parasite viability was calculated by the formula: % viability = [(A − P)/(N − P)] × 100, A = absorbance of specific well, P = positive control, N = negative control. Determination of half-maximal effective concentrations (EC50), calculated by logarithmic regression, and significance analysis (p < 0.05), using ANOVA and Dunnett’s test, by GraphPad Prism 7.0 software. The results are expressed as the mean and standard deviation (SD) of three independent experiments.

The subject of data set [1] is L. amazonensis amastigotes. The data set is described as follows: Anti-L. amazonensis amastigote assessment in RAW 264.7 macrophages. Type of data set: cell-based, Leishmania amazonensis. The following applies: for EC50: Leishmania amazonensis, RAW264.7, in RAW 264.7, 48 h, read-out: EC50 L. amazonensis intracellular amastigotes; for S.I. (selectivity index): host cell/parasite EC50 ratio, RAW/L. amazonensis. The protocol:
RAW 264.7 cells were seeded in a 96-well microplate (2.0 × 10^4 cells per well) in complete DMEM with 5% FBS and incubated for 3 h at 37 °C in 5% CO2 for cell adhesion. The medium was renewed, and L. amazonensis promastigotes (3.0 × 10^5 parasites per well) were added. After 24 h of incubation at 37 °C in 5% CO2, the cell monolayer was washed with PBS to remove noninternalized parasites, the medium was renewed, and compounds were added at a range of concentrations in triplicate (100–1 μM). Untreated infected cells and noninfected RAW 264.7 cells were used as negative and positive controls, respectively. Vehicle control containing DMEM and 0.3% DMSO was maintained for comparison. After incubation for 48 h at 37 °C in 5% CO2, the medium was removed, and a solution containing 0.02% SDS in PBS (20 µL per well) was added. Macrophage lysis and amastigote release were accompanied under an inverted microscope for 10–15 min. SIM with 12.5% SFB (80 µL per well) was added, parasites were allowed to differentiate into promastigotes for 48 h at 27 °C, and an MTT salt solution in PBS was added (3.0 mM, 20 µL per well). After incubation for 2 h at 27 °C, the MTT formazan was dissolved by adding 120 µL of solubilizing buffer (50% isopropanol, 40% acetate buffer pH 5.4, 10% Triton X). Absorbance was measured using a microplate reader at 570 nm.
as §3

A further data set relates to LLC-MK2 cells. The data set can be described thus: Cytotoxicity to LLC-MK2 host cells (MTT). Type of data set: cell-based. The following applies: Macaca mulatta, LLC-MK2; 120 h, MTT. The protocol: as §2
(§4) LLC-MK2 cells were seeded in a 96-well microplate (1.0 × 10^4 cells per well) in complete DMEM with 5% FBS (120 µL per well). After incubation for 24 h at 37 °C in 5% CO2, the medium was renewed, and compounds were added at a range of concentrations in triplicate (50 μM or 100–1 μM). Untreated cells and cells treated with DMEM and 10% DMSO were used as negative and positive controls, respectively. Vehicle control containing DMEM and 0.3% DMSO was maintained for comparison. After incubation for 120 h at 37 °C in 5% CO2, the medium was renewed, and MTT salt solution in PBS was added (3.0 mM, 20 µL per well). After incubation for 2 h at 37 °C in 5% CO2, the supernatant was removed, and MTT formazan was dissolved in DMSO (150 µL per well). Absorbance was measured using a microplate reader at 570 nm.
as §3

Data set [2] is described as follows: Cytotoxicity to LLC-MK2 host cells (MTT). Type of data set: cell-based. The following applies: rhesus monkey, LLC-MK2 cells (kidney fibroblasts); for viability at 120 h, 50 µM: screening at 50 μM. Here is the method:
as §2, §4, §3

A further data set deals with FEPS (K562/DNR). The data set is described as follows: MTT cytotoxicity to MDR CML cell line FEPS. In kind it is cell-based, human. The following applies: for RR (relative resistance) FEPS: (EC50 MDR cells)/(EC50 parental cells), FEPS/K562; for EC50: Homo sapiens, K562, 72 h, MTT. The gist of the method: as §1

In general, EC50 refers to the midpoint of the concentration-response curve. A word on the viability: it is a read-out of living cells in per cent, often relative to untreated cells. In general, melting point refers to the temperature, or range, at which the solid turns liquid.

Regarding `COc1cc(/C=C/c2nc(-c3ccccc3)no2)cc(OC)c1OC` [Compound 12, (E)-3-phenyl-5-[2-(3,4,5-trimethoxyphenyl)vinyl]-1,2,4-oxadiazole], in the data set with Lucena-1 (K562/VCR), the “RR (relative resistance) Lucena-1” value came to 2.42. Further, the EC50 in the data set on Lucena-1 (K562/VCR) was 43.5 ± 1.8 µM; in the data set with RAW 264.7 cells it was > 100 µM; in data set [1] it was 50.1 ± 16.4 µM; in the data set on LLC-MK2 cells, > 100 µM; with FEPS (K562/DNR), 25.5 ± 4.9 µM. Also, the “S.I. (selectivity index)” value in data set [1] was >2.0. This compound returned a viability at 120 h, 50 µM in data set [2] of 88.2 ± 5.2%. In addition, in the data set on FEPS (K562/DNR), the “RR (relative resistance) FEPS” value is reported as 1.42.
Turning to `C(=C\c1nc(-c2ccccc2)no1)/c1cccnc1` [Compound 15, (E)-3-phenyl-5-[2-pyridyn-3-yl-vinyl]-1,2,4-oxadiazole], the melting point lay within 107 to 110 °C. Also, in the data set with Lucena-1 (K562/VCR), the “RR (relative resistance) Lucena-1” value is listed as 0.97 and the EC50 turned out to be 26.7 ± 7.2 µM. In addition, the EC50 in the data set with LLC-MK2 cells was > 100 µM. Further, in the data set with FEPS (K562/DNR), the “RR (relative resistance) FEPS” value came to 0.68 and the EC50 was found to be 18.7 ± 3.9 µM.
Regarding `COc1cc(/C=C/c2nc(-c3cc(OC)c(OC)c(OC)c3)no2)cc(OC)c1OC` [Compound 23, (E)-3-(3,4,5-trimethoxyphenyl)-5-[2-(3,4,5-trimethoxyphenyl)-vinyl]-1,2,4-oxadiazole], the melting point is 118 to 120 °C. Further, in the data set on Lucena-1 (K562/VCR), the “RR (relative resistance) Lucena-1” value is 0.94 and the EC50 came to 12.4 ± 2.5 µM. Further, the EC50 in the data set with RAW 264.7 cells was > 100 µM. Besides, the “lowest concentration with significant amastigote growth inhibition compared with host cell toxicity” value in data set [1] (L. amazonensis vs RAW 264.7, p < 0.05) turned out to be 16 µM. In addition, in data set [1], the EC50 amounted to 13.5 ± 3.6 µM and the “S.I. (selectivity index)” value is listed as >7.4. For the same compound, the EC50 with LLC-MK2 cells came out at 78 ± 4.7 µM. In data set [2] (host cells at 1.0 μM, read-out: host cell viability), the viability at 120 h, 1 µM turned out to be 93 ± 4.4%. For the same compound, in data set [2], the viability at 120 h, 50 µM worked out at 64.1 ± 4.4%. Besides, in the data set with FEPS (K562/DNR), the “RR (relative resistance) FEPS” value was found to be 0.42 and the EC50 amounted to 5.5 ± 0.6 µM.
Turning to `COc1cc(-c2noc(/C=C/c3ccc4c(c3)OCO4)n2)cc(OC)c1OC` [Compound 24, (E)-3-(3,4,5-trimethoxyphenyl)-5-[2-(3,4-methylenedioxy-phenyl)vinyl]-1,2,4-oxadiazole], the melting point was in the range of 177 to 180 °C. Besides, in the data set on Lucena-1 (K562/VCR), the “RR (relative resistance) Lucena-1” value is 1.37 and the EC50 stood at 82.6 ± 10.8 µM. In the data set on RAW 264.7 cells, the EC50 turned out to be 58.8 ± 6.1 µM. Further, in data set [1], the EC50 turned out to be 24.8 ± 10.4 µM and the “S.I. (selectivity index)” value stood at 2.3. In addition, the response in the data set on LLC-MK2 cells was half-maximal at 53.4 ± 2.6 µM (EC50). In addition, the viability at 120 h, 50 µM in data set [2] came to 55.9 ± 9.3%. Further, in the data set on FEPS (K562/DNR), the “RR (relative resistance) FEPS” value came out at 0.15 and the midpoint of the response, the EC50, lay at 8.9 ± 0.3 µM.

Source of the values: publication PMC9787607, “A Novel Protocol for the Synthesis of 1,2,4-Oxadiazoles Active against Trypanosomatids and Drug-Resistant Leukemia Cell Lines” (Tropical Medicine and Infectious Disease, 2022).
